Values quoted from earlier work in patent US20260183298A1, “VIRAL PROPHYLAXIS TREATMENT METHODS AND PRE-EXPOSURE PROPHYLAXIS KITS” (priority 2022, published 2026).

Assays:
[1] = in vivo
[2] = system: HSV-1, HSV-2, HSV-8 (Kaposi's Sarcoma Virus), Vaccinia and Cowpox viruses
EHV = conditions: about 75% of the horses infected with EHV; all horses treated with valacyclovir

Compound	time to clear through the kidneys [1]	antiviral activity [2]	potency relative to reference antivirals ([2]; than the antiviral drugs acyclovir, ganciclovir and cidofovir)	Renal clearance (following a single 1 g dose) [mL/min]	Mean Cmax (in vivo) [ng/mL]	bioavailability (overall) [%]	progression to severe neurological disease (EHV)	metabolism by cytochrome p450 (cytochrome p450)
CC(=O)OCC(CCn1cnc2cnc(N)nc21)COC(C)=O [Famciclovir, famciclovir]	less than 24 hours	–	–	–	–	–	–	–
Cc1cn([C@H]2C[C@H](O)[C@]3(CO)C[C@H]23)c(=O)[nH]c1=O [N-MCT, N-methanocarbathymidine]	–	inhibits	equally or more potent	–	–	–	–	–
CC(C)[C@H](N)C(=O)OCCOCn1cnc2c(=O)[nH]c(N)nc21 [Valacyclovir, valacyclovir]	less than 24 hours	–	–	255	830 to 5650	54.5	none progressed to severe neurological disease	not metabolized by cytochrome p450
